Structures are written as SMILES.

Our source for the RP-LC retention time values is the METLIN SMRT retention time set (Domingo-Almenara et al. 2019).

A short description of the series: gradient 5% acetonitrile 3 min, to 50% in 2 min, to 85% in 15 min, held 3 min, 100 µL/min. Conditions: column: Zorbax Extend-C18 2.1 x 50 mm; eluents: water / acetonitrile, 0.1% formic acid. Summed up: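 Standards, all pure, were combined into mixtures of ~100 molecules and run at 100 μL/min on a Zorbax Extend-C18 column (2.1 × 50 mm, 1.8 μm) with water and acetonitrile, each containing 0.1% formic acid. A coupled quadrupole time-of-flight mass spectrometer operated in positive and negative ionization mode. Retention time values come from computationally picked adduct peaks, each inspected manually.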
In the case of `COc1cc(OC)c(NS(=O)(=O)c2cc(-c3cc(C(F)(F)F)on3)sc2C)cc1Cl`, the RP-LC retention time came to 1150 s.

For the compound `O=C(NCc1cccc(F)c1)C1CCCN(c2nnc3ccc(Cl)cn23)C1` (stereo unspecified), the RP-LC retention time turned out to be 645 s.

The compound `CC(C)NC(=O)N1CCCC(Cn2cnc3cccnc32)C1` (stereo unspecified) registered an RP-LC retention time of 610 s.

Take `Cc1cc(C)cc(NS(=O)(=O)c2cc(-c3nc(C)cs3)sc2C)c1`: the RP-LC retention time stood at 1080 s.

In the case of `CCN1CCN(c2nnc(-c3nc(C4CC4)no3)c3ccccc23)CC1`, the RP-LC retention time was found to be 622 s.

`Cc1cc(Cl)ccc1NC(=O)Cn1cnc2nc3c(cc2c1=O)CCCC3`: the RP-LC retention time was 770 s.

The compound `CC(C)NC(=O)C1Cn2cccc2C(=O)N1C` (stereo unspecified) gave an RP-LC retention time of 651 s.

As for `Cc1cc2c(cc1S(=O)(=O)N1CCCC1C(=O)N(C)C1CCCCC1)OC(C)C(=O)N2` (stereo unspecified), the RP-LC retention time was determined as 806 s.

`Cc1ccc(C)c(NC(=O)Cc2csc3nc(-c4ccc(C)c(C)c4)cn23)c1` came in with an RP-LC retention time of 896 s.

In the case of `CC(C)OC(=O)c1ncoc1-c1ccccc1C(=O)NCC1CCCO1` (stereo unspecified), the RP-LC retention time is 676 s.

`O=C(NC1CCCCC1)c1ccc2ccnc(N3CCN(c4ccc(Cl)cc4)CC3)c2c1` had an RP-LC retention time of 986 s.

As to `CCN1CCC(n2cc(CNc3cc(Cl)c4ncc(C#N)c(Nc5ccc(F)c(Cl)c5)c4c3)nn2)CC1`, the RP-LC retention time was determined as 727 s.

`CCOc1ccc(C2Cn3nnc(-c4nc(-c5cccc(F)c5)no4)c3CO2)cc1` (stereo unspecified): the RP-LC retention time is 1220 s.

For the compound `Cc1ccc(N2CCN(c3ncc(C(=O)O)c(C)n3)CC2)cc1`, the RP-LC retention time came to 863 s.

As to `Cc1nn(C)cc1C(=O)N(Cc1ccccc1)c1ccccn1`, the RP-LC retention time amounted to 674 s.

Compound `CC(C(=O)NCCCN1CCCCCC1)n1ccc2cc(S(=O)(=O)N3CCCCCC3)ccc21` (stereo unspecified) registered an RP-LC retention time of 604 s.

Take `CC(=O)NC1(C(=O)O)CCCC1`: the RP-LC retention time is 617 s.

Compound `O=C(C1CCN(c2cncnc2N2CCOCC2)CC1)N1CCC(Cc2ccccc2)CC1` returned an RP-LC retention time of 700 s.

Consider `Cc1oc(C(C)C)nc1C(=O)NCc1cccs1`, for which the RP-LC retention time came to 897 s.

Turning to `O=C(NC1CCc2ccccc21)C1CCN(c2ncnc3c2oc2ccccc23)CC1` (stereo unspecified), the RP-LC retention time is 778 s.

As to `Cc1noc(C)c1CNC(=O)c1cc(-c2ccccc2)n[nH]1`, the RP-LC retention time stood at 706 s.

The compound `COC(=O)CNC(=O)C1COc2ccc(NC(=O)c3ccc(Cl)cc3)cc2C1` (stereo unspecified) displayed an RP-LC retention time of 794 s.

`CCCNC(=O)C1CCCN(c2nc3ncn(CC(=O)Nc4ccc(CC)cc4)c(=O)c3s2)C1` (stereo unspecified) displayed an RP-LC retention time of 741 s.

On to `O=C(NCc1cc(F)ccc1F)C1CCc2nc(N3CCOCC3)ncc2C1` (stereo unspecified), for which the RP-LC retention time is 715 s.

As to `COc1ccc(C(=O)N2C[C@@H]3C[C@H](NS(=O)(=O)c4ccccc4)[C@H]2C3)cn1`, the RP-LC retention time was determined as 695 s.

In turn, `CSc1ccc(-c2nc3cccc(C)n3c2Nc2ccc3c(c2)OCO3)cc1` displayed an RP-LC retention time of 712 s.

Turning to `Fc1ccc(F)c(-c2nc(-c3ccc4c(c3)ncn4CCN3CCCC3)no2)c1`, the RP-LC retention time stood at 624 s.

Compound `CCOc1ccc(N2CC(c3nc(-c4ccncc4)no3)CC2=O)cc1` (stereo unspecified) came in with an RP-LC retention time of 736 s.

In the case of `CCOC(=O)C1=C(C)NC2=C(C(=O)C(C(=O)OC)C(C)C2)C1c1ccccc1OCC` (stereo unspecified), the RP-LC retention time came to 906 s.

Take `CCc1nnc2ccc(-c3noc(-c4cccc(Cl)c4)n3)cn12`: the RP-LC retention time came out at 1070 s.

`O=C(Nc1cnn(-c2ncncc2N2CCCCC2)c1)C1CC1` had an RP-LC retention time of 604 s.

As to `O=S(=O)(CCCOc1ccc2c(c1)OCO2)NCCC1=CCCCC1`, the RP-LC retention time is 1000 s.

Compound `O=C(c1ccc(Nc2nn3c(=O)c4ccccc4nc3s2)cc1)N1CCN(c2ccccn2)CC1` had an RP-LC retention time of 622 s.

Turning to `COc1cc(NC(=O)c2c(OC)cc(=O)n3c2CCCC3)cc(OC)c1OC`, the RP-LC retention time turned out to be 779 s.

Compound `CSc1ccc(-c2nc3ncccn3c2Nc2cc(C)ccc2C)cc1` registered an RP-LC retention time of 864 s.

`CC(C)c1ccc(CNC(=O)c2ccc3c(c2)N(C)C2CCCCN2C3=O)cc1` (stereo unspecified) yielded an RP-LC retention time of 976 s.

Turning to `Cn1nc(C2CCN(C(=O)C3CCCO3)CC2)c2c1CCOC2` (stereo unspecified), the RP-LC retention time was 586 s.

Turning to `COc1ccccc1C(=O)N1c2ccccc2NC(=O)CC1C` (stereo unspecified), the RP-LC retention time was 639 s.

In the case of `COc1cccc(-c2cn3c(C(=O)Nc4ncccc4C)csc3n2)c1`, the RP-LC retention time was determined as 732 s.

Take `Cc1nc(N)n(CC(=O)NCc2ccccc2)c(=O)c1C`: the RP-LC retention time worked out at 611 s.

In turn, `CCc1ccccc1S(=O)(=O)N1CCC(C(=O)NCCc2csc(-c3ccccc3)n2)CC1` showed an RP-LC retention time of 1010 s.

As to `CCOc1ccc(NC(=O)c2c(N3CCCC3=O)c3cc(OC)ccc3n2C)cc1`, the RP-LC retention time was found to be 984 s.

`CCOC(=O)c1nc(N(C)C2CCCCC2)c2ccccc2n1` had an RP-LC retention time of 789 s.

Take `CC(C)n1c(=O)c2ccccc2n(Cc2nc(-c3ccc(Br)cc3)no2)c1=O`: the RP-LC retention time is 1230 s.

In the case of `O=C(NCCc1c[nH]c2ccccc12)c1cc2cccnc2n(Cc2ccccc2F)c1=O`, the RP-LC retention time came out at 1080 s.

With `CCCC(=O)Nc1nnc(SCc2nnc(-c3ccc4c(c3)OCO4)o2)s1`, the RP-LC retention time was determined as 794 s.

`Cc1ccc(-n2c(N3CCCC(C(=O)NCC(C)C)C3)nc3ccsc3c2=O)cc1` (stereo unspecified) yielded an RP-LC retention time of 847 s.

Compound `CCNC(=O)C1CCN(S(=O)(=O)c2c(C)[nH]c(C)c2C(=O)N2CCCCC2)CC1` registered an RP-LC retention time of 624 s.

Regarding `O=C(COc1ccc(Cl)cc1)NCC(=O)N1CCCc2ccccc21`, the RP-LC retention time was determined as 910 s.

On to `Cn1cc(Cl)c(C(=O)N2CCCC2c2ccccc2F)n1` (stereo unspecified), for which the RP-LC retention time is 813 s.

Turning to `COc1cccc(-c2nc(-c3ccc4c(c3)ncn4CCN3CCCCC3)no2)c1OC`, the RP-LC retention time was found to be 680 s.

As to `Cc1nc(-c2ccc(C(=O)NCc3ccc4c(c3)OCO4)cc2)cs1`, the RP-LC retention time is 844 s.

`CC(=O)N1CCC(C2CCN(C(=O)C3CC=CCC3)C2)CC1` (stereo unspecified) showed an RP-LC retention time of 691 s.

`Cc1ccc(-c2nc3nc(C)cc(C)n3c2Nc2ccccc2)cc1` returned an RP-LC retention time of 726 s.

On to `Cc1oc(-c2[nH]ncc2C(=O)N(C)C)cc1S(=O)(=O)N1CCOCC1`, for which the RP-LC retention time was determined as 604 s.

Take `Cc1ccc(C(=O)NC2(c3nc(C)no3)CCCCC2)cc1`: the RP-LC retention time amounted to 886 s.

Compound `COc1ccc(-c2cn3c(CC(=O)Nc4nc5ccc(C)cc5s4)csc3n2)cc1OC` gave an RP-LC retention time of 783 s.

`CC(C)c1ccc(S(=O)(=O)c2cnc(N3CCC4(CC3)OCCO4)nc2N)cc1` gave an RP-LC retention time of 1020 s.

On to `Cc1ccc(N2C(=O)CN(S(=O)(=O)c3ccccc3)CC2(C)C(=O)NC2CCCC2)cc1` (stereo unspecified), for which the RP-LC retention time stood at 917 s.

`O=c1cc(Cn2nc3ccc(-c4ccc(Cl)cc4)nn3c2=O)nc2ccccn12` showed an RP-LC retention time of 676 s.

The compound `CN(C)S(=O)(=O)c1ccc(C(=O)N2CCC(Oc3nc4ccccc4s3)CC2)cc1` yielded an RP-LC retention time of 892 s.

For the compound `O=C(CN1CC(c2nc(-c3ncccn3)no2)C1)Nc1ccc(F)c(Cl)c1`, the RP-LC retention time turned out to be 576 s.

With `COCC(=O)N1CCCC(c2nc(CNC(=O)C3CCC3)cs2)C1` (stereo unspecified), the RP-LC retention time worked out at 597 s.

In turn, `Cc1[nH]c(-c2ccccc2)cc1C(=O)N1CCCCCC1` registered an RP-LC retention time of 896 s.

For the compound `Cc1cc(-c2csc(S(=O)(=O)NCCCN3CCN(Cc4ccccc4)CC3)c2)on1`, the RP-LC retention time worked out at 650 s.

Consider `COCCCNc1c(C(=O)OC)c(=O)[nH]c2c(Cl)cccc12`, for which the RP-LC retention time amounted to 692 s.

Compound `O=C(CC1CCN(C(=O)NCCc2ccccc2)CC1)N1CCCCC1` gave an RP-LC retention time of 759 s.

Take `CCc1ccc(N2CC(c3noc(-c4cccs4)n3)CC2=O)cc1` (stereo unspecified): the RP-LC retention time worked out at 1010 s.

For `O=C(NCc1ccc(F)cc1Cl)c1cn(-c2ccc(NC(=O)C3CC3)cn2)cn1`, the RP-LC retention time was found to be 814 s.

`Cc1nc(-c2ccc3c(c2)CCN3C(=O)Cc2cccc(F)c2)no1`: the RP-LC retention time amounted to 923 s.

`CCc1cc(C(=O)Nc2cccc(F)c2)nc2ccnn12` returned an RP-LC retention time of 998 s.

`COc1ccc2nc3cc(Cl)ccc3c(C#N)c2c1` came in with an RP-LC retention time of 1260 s.

`CCN1CCN(C(=O)c2ccc3ccnc(N4CCN(c5ccc(Cl)cc5)CC4)c3c2)CC1` displayed an RP-LC retention time of 618 s.

For the compound `O=C(NC1CCCCC1)c1cc2ccccc2cc1O`, the RP-LC retention time was found to be 1180 s.

`O=C(CCc1ccccc1)N1CCCC1c1nc(-c2ccccc2Cl)no1` (stereo unspecified) showed an RP-LC retention time of 1040 s.

Regarding `COc1ccc(C)cc1NC(=O)CNC(=O)c1ccc(=O)[nH]c1`, the RP-LC retention time came to 588 s.

The compound `CC1CC(C)CN(C(=O)C2CCCN(C(=O)c3cc4sccc4n3C)C2)C1` (stereo unspecified) displayed an RP-LC retention time of 963 s.

Consider `Cc1nc(-c2ccccc2)nc2c1CC(=O)N2Cc1cccs1`, for which the RP-LC retention time came to 1070 s.

Consider `O=C(Nc1ccc(Br)cc1F)C1CCCN(c2cnc3ccccc3n2)C1` (stereo unspecified), for which the RP-LC retention time was 1070 s.

Compound `Cc1cccc(-c2noc(C3CCCN3S(=O)(=O)c3ccc(Br)cc3)n2)c1` (stereo unspecified) came in with an RP-LC retention time of 1230 s.

`CCc1ccccc1NS(=O)(=O)c1cc(-c2[nH]ncc2C(=O)N2CCOCC2)oc1C`: the RP-LC retention time was 721 s.
